From patent US9469653B2, “Pharmaceutical compositions for preventing or treating degenerative brain disease and method of screening the same” (KOREA INSTITUTE OF SCIENCE AND TECHNOLOGY, priority 2011, dated 2016)
Where two headings read alike, the source gives them in different places.

How the values were obtained:
[1] = target: T1, human MAO-B enzyme (Homo sapiens (Human), UniProt P27338); experiment: Screening of MAO-B activity inhibition (Amplex Red monoamine oxidase assay kit, benzylamine substrate); type: biochemical; conditions: 10 uM of the synthesized compound, pargyline-corrected
T1 sequence (P27338 whole entry): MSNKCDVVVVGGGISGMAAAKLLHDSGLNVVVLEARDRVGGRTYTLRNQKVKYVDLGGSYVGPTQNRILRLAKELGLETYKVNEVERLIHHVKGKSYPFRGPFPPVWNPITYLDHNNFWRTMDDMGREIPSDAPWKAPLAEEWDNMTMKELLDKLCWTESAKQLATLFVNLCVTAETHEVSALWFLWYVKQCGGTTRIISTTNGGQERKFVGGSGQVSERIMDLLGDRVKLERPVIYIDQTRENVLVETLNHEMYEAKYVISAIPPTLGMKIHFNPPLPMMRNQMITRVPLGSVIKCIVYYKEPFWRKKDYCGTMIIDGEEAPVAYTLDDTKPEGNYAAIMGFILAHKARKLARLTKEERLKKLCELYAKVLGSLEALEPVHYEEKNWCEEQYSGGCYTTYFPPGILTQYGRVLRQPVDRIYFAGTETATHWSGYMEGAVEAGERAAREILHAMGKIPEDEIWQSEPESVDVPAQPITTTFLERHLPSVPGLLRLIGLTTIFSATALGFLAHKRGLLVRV
Method: A stock solution was prepared using a human MAO-B enzyme (purchased from Aldrich) and a Amplex® Red monoamine oxidase assay kit according to a preparation manual. The kit includes a 5× reaction buffer, an Amplex® red reagent (1 mg), HRP, DMSO, H2O2, p-tyramine (substrate of MAO-A, B), benzylamine (substrate of MAO-B), clorgiline (inhibitor of MAO-A), and pargyline (inhibitor of MAO-B). Among these reagents in the kit, benzylamine was used as a substrate for MAO-B, and pargyline was used as an MAO-B inhibitor. A solution as overall substrates was prepared as follows. 200 ul of a solution of 1 mg of Amplex® red sufficiently dissolved in 200 ul of DMSO, 100 ul of a mixed solution of HRP and 1 ml of a 1× buffer, 200 ul of a solution of benzylamine dissolved in 1.2 ml of dH2O were added to 9.5 ml of a 1× buffer to reach a total volume of 10 mL, which is sufficient for 100 wells. 0.5 ul of a mixture of MAO-B inhibitor pargyline and 1 ml of dH2O was put into each well. First, the activity of MAO-B was determined using 10 uM of the synthesized compound.
96 wells were injected with positive and negative types, and the wile type. The positive type included only substrate and hydrogen peroxide, and the negative type included only substrate. For the wild type, corresponding wells were injected with the enzyme, substrate, and MAO-B inhibitor, but with no synthesized compound. Afterward, 2 ul of the synthesized compound (1 mM) was added into each well, and the human MAO-B enzyme was put only into the 1st row of wells. 0.5 ug of the human MAO-B was put into each well along with 100 ul of a 1× buffer. The human MAO-B enzyme was put into the 2nd row of the wells along with 0.5 ul of a pargyline, the MAO-B inhibitor. To reduce an experimental error for accuracy, the test was repeated three times for each compound. After 30 minutes, 100 ul of the substrate solution was added into each well in a darkroom. The test was performed in the darkroom due to light sensitivity of the Amplex® reagent. Finally, a total volume of the reaction solution per well reached 200 ul. After about 2 to 3 hours, chromophoric degrees of the samples were measured. A variation in data values for the 1st and 2nd rows of the wells indicates the pure reaction activity of the MAO-B enzyme with the substrate. Using the samples with the synthesized compound the remaining activity of MAO-B after inhibited by the synthesized compound may be determined. This is because the activities of the other enzymes excluding the MAO-B enzyme may be excluded through this method. Compounds with high inhibitory activity at a concentration of 10 uM were screened from among the synthesized compounds at a compound concentration of 10 uM.

[2] = target: T1, human MAO-B enzyme; experiment: as above; type: biochemical
[3] = activity assay at 0.001, 0.01, 0.1, 1 and 10 uM

For “2-fluorophenyl-5-(pyrrolidine-1-yl)oxazolo[5,4-b]pyridine [Example 5-34]”, the “Remaining activity of MAO-B (%)” value [1] was 8.4% and the IC50 [2] was 8.7 µM.

For `c1ccc(-c2nc3ccc(N4CCCC4)nc3o2)cc1` [Example 5-30, 2-phenyl-5-(pyrrolidine-1-yl)oxazolo[5,4-b]pyridine], the “Remaining activity of MAO-B (%)” value [1] was 2.31% and the IC50 [2, 3] was 0.41 µM.

For `c1ccc(-c2nc3ccc(N4CCCC4)nc3s2)cc1` [Example 5-31, 2-phenyl-5-(pyrrolidine-1-yl)thiazolo[5,4-b]pyridine], the “Remaining activity of MAO-B (%)” value [1] was 1.7% and the IC50 [2, 3] was 7.3 µM.

In the case of `Clc1ccccc1-c1nc2ccc(N3CCCC3)nc2o1` [Example 5-32, 2-chlorophenyl-5-(pyrrolidine-1-yl)oxazolo[5,4-b]pyridine], the “Remaining activity of MAO-B (%)” value [1] is reported as 7.7% and the IC50 [2, 3] is reported as 112 µM.

For `Clc1cccc(-c2nc3ccc(N4CCCC4)nc3o2)c1` [Example 5-33, 2-chlorophenyl-5-(pyrrolidine-1-yl)oxazolo[5,4-b]pyridine], the “Remaining activity of MAO-B (%)” value [1] was 14.2%.

For `Clc1ccc(-c2nc3ccc(N4CCCC4)nc3o2)cc1` [Example 5-35, 2-chlorophenyl-5-(pyrrolidine-1-yl)oxazolo[5,4-b]pyridine], the “Remaining activity of MAO-B (%)” value [1] was 42.4%.

`Brc1ccc(-c2nc3ccc(N4CCCC4)nc3o2)cc1` [Example 5-36] was tested, and the “Remaining activity of MAO-B (%)” value [1] was 33.5%.

With `c1ccc(-c2nc3ccc(N4CCCCC4)nc3o2)cc1` [Example 5-37, 2-phenyl-5-(piperidine-1-yl)oxazolo[5,4-b]pyridine] the “Remaining activity of MAO-B (%)” value [1] was 3.09% and the IC50 [2, 3] was 2 µM.

`c1ccc(-c2nc3ccc(N4CCCCC4)nc3s2)cc1` [Example 5-38, 2-phenyl-5-(piperidine-1-yl)thiazolo[5,4-b]pyridine] was tested, and the “Remaining activity of MAO-B (%)” value [1] was 1.8% and the IC50 [2, 3] was 8.3 µM.

In the case of `Clc1cccc(-c2nc3ccc(N4CCCCC4)nc3o2)c1` [Example 5-41, 2-chlorophenyl-5-(piperidine-1-yl)oxazolo[5,4-b]pyridine], the “Remaining activity of MAO-B (%)” value [1] is reported as 17%.

`Cc1cccc(-c2nc3ccc(N4CCCCC4)nc3o2)c1` [Example 5-42, 5-(piperidine-1-yl)-2-m-tolyloxazolo[5,4-b]pyridine] was tested, and the “Remaining activity of MAO-B (%)” value [1] was −7.8%.

In the case of `O=[N+]([O-])c1cccc(-c2nc3ccc(N4CCCCC4)nc3o2)c1` [Example 5-43], the “Remaining activity of MAO-B (%)” value [1] is reported as −21.5%.

For `N#Cc1cccc(-c2nc3ccc(N4CCCCC4)nc3o2)c1` [Example 5-44, 3-(5-(piperidine-1-yl)oxazolo[5,4-b]pyridine-2-yl)benzonitrile], the “Remaining activity of MAO-B (%)” value [1] was 10.1%.

`Clc1ccc(-c2nc3ccc(N4CCCCC4)nc3o2)cc1` [Example 5-46] was tested, and the “Remaining activity of MAO-B (%)” value [1] was 56.0%.

With `Cc1ccc(-c2nc3ccc(N4CCCCC4)nc3o2)cc1` [Example 5-48, 5-(piperidine-1-yl)-2-p-tolyloxazolo[5,4-b]pyridine] the “Remaining activity of MAO-B (%)” value [1] was 46.2%.

`N#Cc1ccc(-c2nc3ccc(N4CCCCC4)nc3o2)cc1` [Example 5-50, 4-(5-(piperidine-1-yl)oxazolo[5,4-b]pyridine-2-yl)benzonitrile] was tested, and the “Remaining activity of MAO-B (%)” value [1] was 71.2%.

For `Clc1cccc(-c2nc3ccc(NC4CCCC4)nc3o2)c1` [Example 5-51, 2-(3-chlorophenyl)-N-cyclopentyloxazolo[5,4-b]pyridine-5-amine], the “Remaining activity of MAO-B (%)” value [1] was 37.2%.

`c1ccc(-c2nc3ccc(NC4CCCCC4)nc3s2)cc1` [Example 5-52, N-cyclohexyl-2-phenylthiazolo[5,4-b]pyridine-5-amine] was tested, and the “Remaining activity of MAO-B (%)” value [1] was 43%.

For `Clc1cccc(-c2nc3ccc(NC4CCCCC4)nc3o2)c1` [Example 5-53, 2-(3-chlorophenyl)-N-cyclohexyloxazolo[5,4-b]pyridine-5-amine], the “Remaining activity of MAO-B (%)” value [1] was 39.3%.

In the case of `c1ccc(-c2nc3ccc(N4CCCCCC4)nc3o2)cc1` [Example 5-54, 5-(azepane-1-yl)-2-phenyloxazolo[5,4-b]pyridine], the “Remaining activity of MAO-B (%)” value [1] is reported as 57.5%.

For `c1ccc(-c2nc3ccc(N4CCCCCC4)nc3s2)cc1` [Example 5-55, 5-(azepane-1-yl)-2-phenylthiazolo[5,4-b]pyridine], the “Remaining activity of MAO-B (%)” value [1] was −1.8%.

With `Fc1ccc(-c2nc3ccc(N4CCCCCC4)nc3o2)cc1` [Example 5-56, 5-(azepane-1-yl)-2-(4-fluorophenyl)oxazolo[5,4-b]pyridine] the “Remaining activity of MAO-B (%)” value [1] was 61.4%.

In the case of `c1ccc(CNc2ccc3nc(-c4ccccc4)oc3n2)cc1` [Example 5-57, N-benzyl-2-phenyloxazolo[5,4-b]pyridine-5-amine], the “Remaining activity of MAO-B (%)” value [1] is reported as 63.1%.

`Fc1cccc(-c2nc3ccc(NCc4ccccc4)nc3o2)c1` [Example 5-59, N-benzyl-2-(3-fluorophenyl)oxazolo[5,4-b]pyridine-5-amine] was tested, and the “Remaining activity of MAO-B (%)” value [1] was 51.9%.

For `Clc1cccc(-c2nc3ccc(NCc4ccccc4)nc3o2)c1` [Example 5-60, N-benzyl-2-(3-chlorophenyl)oxazolo[5,4-b]pyridine-5-amine], the “Remaining activity of MAO-B (%)” value [1] was 55.4%.

For `Clc1ccc(-c2nc3ccc(NCc4ccccc4)nc3o2)cc1` [Example 5-61, N-benzyl-2-(4-chlorophenyl)oxazolo[5,4-b]pyridine-5-amine], the “Remaining activity of MAO-B (%)” value [1] was 46.4%.

`c1ccc(-c2nc3ccc(NCCN4CCOCC4)nc3s2)cc1` [Example 5-62, N-(2-morpholinoethyl)-2-phenylthiazolo[5,4-b]pyridine-5-amine] was tested, and the “Remaining activity of MAO-B (%)” value [1] was 42.7%.

In the case of `CN(Cc1ccccc1)c1ccc2nc(-c3ccccc3)oc2n1` [Example 5-63, N-benzyl-N-methyl-2-phenyloxazolo[5,4-b]pyridine-5-amine], the “Remaining activity of MAO-B (%)” value [1] is reported as 53.2%.

In the case of `CN(Cc1ccccc1)c1ccc2nc(-c3ccccc3)sc2n1` [Example 5-64, N-benzyl-N-methyl-2-phenylthiazole[5,4-b]pyridine-5-amine], the “Remaining activity of MAO-B (%)” value [1] is reported as 47.8%.

In the case of `CN(Cc1ccccc1)c1ccc2nc(-c3ccccc3Cl)oc2n1` [Example 5-65, N-benzyl-2-(2-chlorophenyl)-N-methyloxazolo[5,4-b]pyridine-5-amine], the “Remaining activity of MAO-B (%)” value [1] is reported as 84.1%.

`CN(Cc1ccccc1)c1ccc2nc(-c3cccc(F)c3)oc2n1` [Example 5-66, N-benzyl-2-(3-fluorophenyl)-N-methyloxazolo[5,4-b]pyridine-5-amine] was tested, and the “Remaining activity of MAO-B (%)” value [1] was 43%.

`Cc1ccc(-c2nc3ccc(N(C)Cc4ccccc4)nc3o2)cc1` [Example 5-69, N-benzyl-N-methyl-2-p-tolyloxazolo[5,4-b]pyridine-5-amine] was tested, and the “Remaining activity of MAO-B (%)” value [1] was 84.1%.

With `COc1ccc(-c2nc3ccc(N(C)Cc4ccccc4)nc3o2)cc1` [Example 5-70, N-benzyl-2-(4-methoxyphenyl)-N-methyloxazolo[5,4-b]pyridine-5-amine] the “Remaining activity of MAO-B (%)” value [1] was 52.4%.

With `CN(Cc1ccccc1)c1ccc2nc(-c3ccc([N+](=O)[O-])cc3)oc2n1` [Example 5-71, N-benzyl-N-methyl-2-(4-nitrophenyl)oxazolo[5,4-b]pyridine-5-amine] the “Remaining activity of MAO-B (%)” value [1] was 101.2%.

`CN(Cc1ccccc1)c1ccc2nc(-c3ccc(C#N)cc3)oc2n1` [Example 5-72] was tested, and the “Remaining activity of MAO-B (%)” value [1] was 108.8%.

For `CNc1ccc2nc(-c3ccccc3)oc2n1` [Example 5-73, N-methyl-2-phenyloxazolo[5,4-b]pyridine-5-amine], the “Remaining activity of MAO-B (%)” value [1] was 51%.

For `CNc1ccc2nc(-c3ccc(C)cc3)oc2n1` [Example 5-78, N-methyl-2-p-tolyloxazolo[5,4-b]pyridine-5-amine], the “Remaining activity of MAO-B (%)” value [1] was 45.8%.

In the case of `CNc1ccc2nc(-c3ccc(OC)cc3)oc2n1` [Example 5-79, 2-(4-methoxyphenyl)-N-methyloxazolo[5,4-b]pyridine-5-amine], the “Remaining activity of MAO-B (%)” value [1] is reported as 84.5%.

For `c1ccc(-c2nc3ccc(NC4CCCCC4)nc3o2)cc1` [Example 5-80, N-cyclohexyl-2-phenyloxazolo[5,6-b]pyridine-5-amine], the “Remaining activity of MAO-B (%)” value [1] was 11.1%.
